Measured values published in PubChem BioAssay AID1963442 (Molecular Pharmacology Branch, DTP, NCI, 2024).

Test system: MPNST complex spheroid with HUVEC/MSC, growth, % test/control
Test: Anticancer human tumor MPNST cell line growth inhibition [Asc];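 also: compounds left on spheroids for seven days before reading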
Details: for IC50: curve of first compound; for viability, T/C: stronger effect = lower value; active = viability on the fitted dose curve at most 10% of control; inactive = the rest
Method in brief: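 Spheroid model: tumor line + HUVEC + hMSC. Single agents and combinations; top conc. at/near clinical Cmax (10 microM if undetermined), half-log dilutions. DMSO stocks at 800-fold test concentration.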

[1] = second compound 0.1 µM, first compound 0.0316 µM
[2] = second compound 0.1 µM, first compound 0.1 µM
[3] = second compound 0.316 µM, first compound 0.0316 µM
[4] = second compound 0.316 µM, first compound 0.1 µM
[5] = second compound 1 µM, first compound 0.0316 µM
[6] = second compound 1 µM, first compound 0.1 µM

O=C(c1cc(Cc2n[nH]c(=O)c3ccccc23)ccc1F)N1CCN(C(=O)C2CC2)CC1 + CCN1C(C(=O)NC23CCC(C(=O)O)(CC2)CC3)C(c2cccc(Cl)c2F)C2(C(=O)Nc3cc(Cl)ccc32)C12CCCCC2
inactive: viability, T/C (second compound 0.03 µM, first compound 0.0316 µM) 122% | viability, T/C (second compound 0.03 µM, first compound 0.1 µM) 113% | viability, T/C (second compound 0.03 µM, first compound 0.316 µM) 101% | viability, T/C (second compound 0.03 µM, first compound 1 µM) 80.6% | viability, T/C (second compound 0.03 µM, first compound 3.16 µM) 65.8% | viability, T/C (second compound 0.03 µM, first compound 10 µM) 50.1% | viability, T/C (second compound 0.0949 µM, first compound 0.0316 µM) 141% | viability, T/C (second compound 0.0949 µM, first compound 0.1 µM) 115% | viability, T/C (second compound 0.0949 µM, first compound 0.316 µM) 121% | viability, T/C (second compound 0.0949 µM, first compound 1 µM) 106% | viability, T/C (second compound 0.0949 µM, first compound 3.16 µM) 97.9% | viability, T/C (second compound 0.0949 µM, first compound 10 µM) 61.5% | viability, T/C (second compound 0.3 µM, first compound 0.0316 µM) 122% | viability, T/C (second compound 0.3 µM, first compound 0.1 µM) 115% | viability, T/C (second compound 0.3 µM, first compound 0.316 µM) 117% | viability, T/C (second compound 0.3 µM, first compound 1 µM) 93.1% | viability, T/C (second compound 0.3 µM, first compound 3.16 µM) 100% | viability, T/C (second compound 0.3 µM, first compound 10 µM) 71.4% | viability, T/C (second compound 0.949 µM, first compound 0.0316 µM) 111% | viability, T/C (second compound 0.949 µM, first compound 0.1 µM) 113% | viability, T/C (second compound 0.949 µM, first compound 0.316 µM) 118% | viability, T/C (second compound 0.949 µM, first compound 1 µM) 100% | viability, T/C (second compound 0.949 µM, first compound 3.16 µM) 100% | viability, T/C (second compound 0.949 µM, first compound 10 µM) 78.2% | viability, T/C (second compound 3 µM, first compound 0.0316 µM) 105% | viability, T/C (second compound 3 µM, first compound 0.1 µM) 107% | viability, T/C (second compound 3 µM, first compound 0.316 µM) 116% | viability, T/C (second compound 3 µM, first compound 1 µM) 90.9% | viability, T/C (second compound 3 µM, first compound 3.16 µM) 88.8% | viability, T/C (second compound 3 µM, first compound 10 µM) 72.2%
> 10000 nM: IC50 (second compound 0.03 µM) | IC50 (second compound 0.0949 µM) | IC50 (second compound 0.3 µM) | IC50 (second compound 0.949 µM) | IC50 (second compound 3 µM)

Cn1ncnc1[C@H]1c2n[nH]c(=O)c3cc(F)cc(c23)N[C@@H]1c1ccc(F)cc1 + Cc1c(S(C)(=O)=O)c(-c2cc(F)cc(N3CCN(c4ccc(NS(=O)(=O)c5ccc(NC(CCN6CCC(C(=O)OCCCP(=O)(O)O)CC6)CSc6ccccc6)c(S(=O)(=O)C(F)(F)F)c5)cc4)CC3)c2)c(-c2ccc(Cl)cc2)n1C(C)C
inactive: viability, T/C (second compound 0.1 µM, first compound 0.000316 µM) 78.7% | viability, T/C (second compound 0.1 µM, first compound 0.001 µM) 77.9% | viability, T/C (second compound 0.1 µM, first compound 0.00316 µM) 72.1% | viability, T/C (second compound 0.1 µM, first compound 0.01 µM) 71.5% | viability, T/C [1] 77.2% | viability, T/C [2] 50.6% | viability, T/C (second compound 0.316 µM, first compound 0.000316 µM) 71.8% | viability, T/C (second compound 0.316 µM, first compound 0.001 µM) 74.6% | viability, T/C (second compound 0.316 µM, first compound 0.00316 µM) 80.4% | viability, T/C (second compound 0.316 µM, first compound 0.01 µM) 97.1% | viability, T/C [3] 66.9% | viability, T/C [4] 59.8% | viability, T/C (second compound 1 µM, first compound 0.000316 µM) 84.7% | viability, T/C (second compound 1 µM, first compound 0.001 µM) 78.4% | viability, T/C (second compound 1 µM, first compound 0.00316 µM) 93.8% | viability, T/C (second compound 1 µM, first compound 0.01 µM) 72.1% | viability, T/C [5] 55.9% | viability, T/C [6] 65.2% | viability, T/C (second compound 3.16 µM, first compound 0.000316 µM) 86.7% | viability, T/C (second compound 3.16 µM, first compound 0.001 µM) 75.8% | viability, T/C (second compound 3.16 µM, first compound 0.00316 µM) 72.6% | viability, T/C (second compound 3.16 µM, first compound 0.01 µM) 63.3% | viability, T/C (second compound 3.16 µM, first compound 0.0316 µM) 61% | viability, T/C (second compound 3.16 µM, first compound 0.1 µM) 56% | viability, T/C (second compound 10 µM, first compound 0.000316 µM) 100% | viability, T/C (second compound 10 µM, first compound 0.001 µM) 84.8% | viability, T/C (second compound 10 µM, first compound 0.00316 µM) 66.1% | viability, T/C (second compound 10 µM, first compound 0.01 µM) 64.2% | viability, T/C (second compound 10 µM, first compound 0.0316 µM) 60.2% | viability, T/C (second compound 10 µM, first compound 0.1 µM) 73.6%
> 100 nM: IC50 (second compound 0.1 µM) | IC50 (second compound 0.316 µM) | IC50 (second compound 1 µM) | IC50 (second compound 3.16 µM) | IC50 (second compound 10 µM)

O=C(c1cc(Cc2n[nH]c(=O)c3ccccc23)ccc1F)N1CCN(C(=O)C2CC2)CC1 + CNC(C)C(=O)NC1CN(S(=O)(=O)c2cccc(S(=O)(=O)N3CCC4CCC(C(=O)NC(c5ccccc5)c5ccccc5)N4C(=O)C(NC(=O)C(C)NC)C3)c2)CCC2CCC(C(=O)NC(c3ccccc3)c3ccccc3)N2C1=O
2010 nM: IC50 (second compound 0.0316 µM)
3390 nM: IC50 (second compound 1 µM)
inactive: viability, T/C (second compound 0.00316 µM, first compound 0.0316 µM) 12.7% | viability, T/C (second compound 0.00316 µM, first compound 0.1 µM) 10.7% | viability, T/C (second compound 0.00316 µM, first compound 0.316 µM) 13.4% | viability, T/C (second compound 0.00316 µM, first compound 1 µM) 12.9% | viability, T/C (second compound 0.00316 µM, first compound 3.16 µM) 12.1% | viability, T/C (second compound 0.00316 µM, first compound 10 µM) 13.7% | viability, T/C (second compound 0.01 µM, first compound 0.0316 µM) 41% | viability, T/C (second compound 0.01 µM, first compound 0.1 µM) 36.8% | viability, T/C (second compound 0.01 µM, first compound 0.316 µM) 50.4% | viability, T/C (second compound 0.01 µM, first compound 1 µM) 44.6% | viability, T/C (second compound 0.01 µM, first compound 3.16 µM) 26.4% | viability, T/C (second compound 0.01 µM, first compound 10 µM) 27.4% | viability, T/C (second compound 0.0316 µM, first compound 0.0316 µM) 76.2% | viability, T/C (second compound 0.0316 µM, first compound 0.1 µM) 65.6% | viability, T/C (second compound 0.0316 µM, first compound 0.316 µM) 59.9% | viability, T/C (second compound 0.0316 µM, first compound 1 µM) 64.3% | viability, T/C (second compound 0.0316 µM, first compound 3.16 µM) 40.4% | viability, T/C (second compound 0.0316 µM, first compound 10 µM) 37.7% | viability, T/C [1] 76.5% | viability, T/C [2] 85% | viability, T/C (second compound 0.1 µM, first compound 0.316 µM) 82.4% | viability, T/C (second compound 0.1 µM, first compound 1 µM) 79.8% | viability, T/C (second compound 0.1 µM, first compound 3.16 µM) 41.8% | viability, T/C (second compound 0.1 µM, first compound 10 µM) 38.8% | viability, T/C [3] 100% | viability, T/C [4] 66% | viability, T/C (second compound 0.316 µM, first compound 0.316 µM) 84.7% | viability, T/C (second compound 0.316 µM, first compound 1 µM) 81.3% | viability, T/C (second compound 0.316 µM, first compound 3.16 µM) 41.8% | viability, T/C (second compound 0.316 µM, first compound 10 µM) 42.4% | viability, T/C [5] 75.8% | viability, T/C [6] 63.4% | viability, T/C (second compound 1 µM, first compound 0.316 µM) 60% | viability, T/C (second compound 1 µM, first compound 1 µM) 68.2% | viability, T/C (second compound 1 µM, first compound 3.16 µM) 45.3% | viability, T/C (second compound 1 µM, first compound 10 µM) 42%
2510 nM: IC50 (second compound 0.316 µM)
< 31.6 nM: IC50 (second compound 0.00316 µM) | IC50 (second compound 0.01 µM)
2460 nM: IC50 (second compound 0.1 µM)
